# Source: ChEMBL document CHEMBL4411339, “Design, synthesis and antimycobacterial activity of less lipophilic Q203 derivatives containing alkaline fused ring moieties” (Bioorg Med Chem, 2019)
# Legend:
# [1] = system: Mycobacterium tuberculosis; assay: Antimycobacterial activity against isoniazid/rifampicin-resistant Mycobacterium tuberculosis isolate 16995 after 7 days by microplate alamar blue assay; format: functional; conditions: isolate 16995, 168 h
# [2] = system: Mycobacterium tuberculosis; assay: Antimycobacterial activity against isoniazid/rifampicin-resistant Mycobacterium tuberculosis isolate 16833 after 7 days by microplate alamar blue assay; format: functional; conditions: isolate 16833, 168 h
smiles,measurement,setting,value
CCc1nc2ccc(Cl)cn2c1C(=O)NCc1ccc2c(c1)CCN(Cc1ccc(C(F)(F)F)cn1)C2,MIC,[1],0.046 µM
same,MIC,[2],0.049 µM
CCc1nc2ccc(Cl)cn2c1C(=O)NCc1ccc2c(c1)CCN(Cc1cc(F)cc(F)c1)C2,MIC,[1],< 0.035 µM
same,MIC,[2],< 0.035 µM
CCc1nc2ccc(Cl)cn2c1C(=O)NCc1ccc2c(c1)CCN(Cc1ccc(F)cc1)C2,MIC,[1],< 0.035 µM
same,MIC,[2],< 0.035 µM
CCc1nc2ccc(Cl)cn2c1C(=O)NCc1ccc2c(c1)CCN(CCc1ccc(C(F)(F)F)cn1)C2,MIC,[1],< 0.035 µM
same,MIC,[2],< 0.035 µM
CCc1nc2cc(Cl)ccn2c1C(=O)NCc1ccc2c(c1)CCN(Cc1ccc(C(C)(C)C)cc1)C2,MIC,[1],< 0.035 µM
same,MIC,[2],< 0.035 µM
CCc1nc2ccc(Cl)cn2c1C(=O)NCc1ccc2c(c1)CCN(Cc1ccc(C(F)(F)F)cc1)C2,MIC,[1],< 0.035 µM
same,MIC,[2],< 0.035 µM
CCc1nc2cc(Cl)ccn2c1C(=O)NCc1ccc2c(c1)CCN(Cc1cc(F)cc(F)c1)C2,MIC,[1],0.11 µM
same,MIC,[2],0.095 µM
CCc1nc2cc(Cl)ccn2c1C(=O)NCc1ccc2c(c1)CCN(Cc1ccc(OC)cc1)C2,MIC,[1],0.9 µM
same,MIC,[2],0.096 µM
CCc1nc2ccc(Cl)cn2c1C(=O)NCc1ccc2c(c1)CCN(Cc1ccc(Br)cc1)C2,MIC,[1],< 0.035 µM
same,MIC,[2],< 0.035 µM
CCc1nc2ccc(Cl)cn2c1C(=O)NCc1ccc2c(c1)CN(C(C)c1ccc(OC(F)(F)F)cc1)C2 (centres undefined),MIC,[1],< 0.035 µM
same,MIC,[2],< 0.035 µM
CCc1nc2ccc(Cl)cn2c1C(=O)NCc1ccc2c(c1)CCN(Cc1ccc(C(C)(C)C)cc1)C2,MIC,[1],< 0.035 µM
same,MIC,[2],< 0.035 µM
CCc1nc2ccc(Cl)cn2c1C(=O)NCc1ccc2c(c1)CCN(Cc1ccc(C)cc1)C2,MIC,[1],< 0.035 µM
same,MIC,[2],< 0.035 µM
CCc1nc2ccc(Cl)cn2c1C(=O)NCc1ccc2c(c1)CCN(Cc1ccc(C(F)(F)F)nc1)C2,MIC,[1],0.047 µM
same,MIC,[2],< 0.035 µM
CCc1nc2ccc(Cl)cn2c1C(=O)NCc1ccc2c(c1)CN(Cc1ccc(OC(F)(F)F)cc1)C2,MIC,[1],< 0.035 µM
same,MIC,[2],< 0.035 µM
CCc1nc2ccc(Cl)cn2c1C(=O)NCc1ccc2c(c1)CCN(Cc1ccc(OC)cc1)C2,MIC,[1],< 0.035 µM
same,MIC,[2],< 0.035 µM
CCc1nc2cc(Cl)ccn2c1C(=O)NCc1ccc2c(c1)CCN(CCc1ccc(C(F)(F)F)cn1)C2,MIC,[1],0.061 µM
same,MIC,[2],< 0.035 µM
CCc1nc2ccc(Cl)cn2c1C(=O)NCc1ccc2c(c1)CCN(CCc1ccc(C(F)(F)F)nc1)C2,MIC,[1],< 0.035 µM
same,MIC,[2],< 0.035 µM
CCc1nc2cc(Cl)ccn2c1C(=O)NCc1ccc2c(c1)CCN(Cc1ccc([N+](=O)[O-])o1)C2,MIC,[1],0.44 µM
same,MIC,[2],1.24 µM
NNC(=O)c1ccncc1 [ISONIAZID],MIC,[1],> 40 µM
same,MIC,[2],> 40 µM
O=c1nc(N2CCN(CC3CCCCC3)CC2)sc2c([N+](=O)[O-])cc(C(F)(F)F)cc12 [MACOZINONE],MIC,[1],< 0.035 µM
same,MIC,[2],< 0.035 µM
CO[C@H]1/C=C/O[C@@]2(C)Oc3c(C)c(O)c4c(O)c(c(/C=N/N5CCN(C)CC5)c(O)c4c3C2=O)NC(=O)/C(C)=C\C=C\[C@H](C)[C@H](O)[C@@H](C)[C@@H](O)[C@@H](C)[C@H](OC(C)=O)[C@@H]1C [RIFAMPIN],MIC,[1],> 40 µM
same,MIC,[2],> 40 µM
CCc1nc2ccc(Cl)cn2c1C(=O)NCc1ccc(N2CCC(c3ccc(OC(F)(F)F)cc3)CC2)cc1 [TELACEBEC],MIC,[1],< 0.035 µM
same,MIC,[2],< 0.035 µM
